{"source": "patent EP3120851A1", "about": "“4-AMINO-6-(2,6-DICHLOROPHENYL)-8-METHYL-2-(PHENYLAMINO)-PYRIDO[2,3-D]PYRIMIDIN-7(8H)-ONE FOR TREATMENT OF SOLID CANCERS” (Pangaea Biotech S.L., priority 2015, dated 2017)", "assay_in_all_cases": "MTT proliferation assay, single agent", "assay_type_in_all_cases": "cell-based", "key": {"[1]": {"test_system": "EBC-1", "conditions": "Homo sapiens, SCC Lung, c-Met ampl, 72 h, mean of several independent experiments", "experimental": "(§1) The compound of formula (1) was tested using a Thiazolyl Blue Tetrazolium Bromide (MTT) proliferation assay in a panel of tumor cell lines of different origins.\n(§2) All culture materials were obtained from Biological Industries (Kibbutz Beit Haemek, Israel) or Invitrogen (Paisley, Scotland, United Kingdom). The non-tumor cell lines HF and HACAT were provided by Vall d'Hebrón Hospital and GmbH, respectively. The PC9 naïve cell line was provided by Mayumi Ono and, the H3122, HCC78 and 11-18 by Daniel Costa. The PC9-GR1, PC9-GR2, PC9-GR3, PC9-GR4, PC9-GR5 and PC9-ER cell lines were derived in house by exposing the parental PC9 cell line to increasing concentrations of erlotinib (ER) or gefitinib (GR). The rest of the cell lines in which compound (1) was tested were purchased from ATCC (H23, H1975, H2228, A549, H460, Calu-6, H1650, SK-MES-1, EBC1, SNU1, AGS, N87, PC3, BxPC3, DLD1, HT29, SW48, SCC9,FaDu, AU565, Gingival, Prostate, SU-DHL-1 and A431). All cell lines were maintained in RPMI medium supplemented with 10% FBS, 50 µg/mL penicillin-streptomycin and 2 mM L-Glutamine. All cells were grown in a humidified atmosphere with 5% CO2 at 37°C.\n(§3) Cell viability in response to single agent treatment was assessed by the Thiazolyl Blue Tetrazolium Bromide (MTT) (Sigma, St Louis, MO) assay. Cells from each cell line were seeded at 2000 to 10000 per well in 96-well plates. […] After treatment, cells were incubated with medium containing MTT (0.75 mg/mL in medium) for 1-2 h at 37°C. Culture medium with MTT was removed and formazan crystals reabsorbed in 100 µL DMSO (Sigma, St. Louis, MO). Cell viability was determined by measuring the absorbance at 492 nm, using a microplate reader (BioWhittaker, Walkersville, MD).\n(§4) The IC50s shown are the mean of several independent experiments. Standard errors are also listed Table 2. SCC means squamous cell carcinoma, ADC means adenocarcinoma, GBM means glioblastoma."}, "[2]": {"test_system": "H520", "conditions": "Homo sapiens, NCI-H520, SCC Lung, DDR2 wt, 72 h, mean of several independent experiments", "experimental": "as §1, §2, §3, §4"}, "[3]": {"test_system": "H23", "conditions": "Homo sapiens, NCI-H23, Lung ADC, KRAS, 72 h, mean of several independent experiments", "experimental": "as §1, §2, §3, §4"}, "[4]": {"test_system": "BxPC3", "conditions": "Homo sapiens, BXPC-3, Pancreas, mut TP53, 72 h, mean of several independent experiments", "experimental": "as §1, §2, §3, §4"}, "[5]": {"test_system": "U118MG", "conditions": "Homo sapiens, U-118-MG, GBM, ROS1-FIG, 72 h, mean of several independent experiments", "experimental": "as §1, §2, §3, §4"}, "[6]": {"test_system": "H460", "conditions": "Homo sapiens, NCI-H460, Lung ADC, KRAS, 72 h, mean of several independent experiments", "experimental": "as §1, §2, §3, §4"}, "[7]": {"test_system": "CD74-ROS1 (wt)", "conditions": "Lung ADC, ROS1 translocated, 72 h, mean of several independent experiments", "experimental": "as §1, §2, §3, §4"}, "[8]": {"test_system": "PC9-GR2", "conditions": "Lung ADC, EGFR ex19, 72 h, mean of several independent experiments", "experimental": "as §1, §2, §3, §4"}, "[9]": {"test_system": "HCC78", "conditions": "Homo sapiens, Lung ADC, ROS1-SLC34A2, 72 h, mean of several independent experiments", "experimental": "as §1, §2, §3, §4"}, "[10]": {"test_system": "A431", "conditions": "Homo sapiens, A-431, SCC, 72 h, mean of several independent experiments", "experimental": "as §1, §2, §3, §4"}, "[11]": {"test_system": "A549", "conditions": "Homo sapiens, Lung ADC, KRAS, 72 h, mean of several independent experiments", "experimental": "as §1, §2, §3, §4"}, "[12]": {"test_system": "H322", "conditions": "NCI-H322, Lung BAC, CD74-NRG1, 72 h, mean of several independent experiments", "experimental": "as §1, §2, §3, §4"}, "[13]": {"test_system": "435S", "conditions": "Melanoma (melanocyte), BRAF V600E, 72 h, mean of several independent experiments", "experimental": "as §1, §2, §3, §4"}, "[14]": {"test_system": "H2286", "conditions": "Homo sapiens, NCI-H2286, SCC Lung, DDR2 mutated, 72 h, mean of several independent experiments", "experimental": "as §1, §2, §3, §4"}, "[15]": {"test_system": "H1650", "conditions": "Homo sapiens, NCI-H1650, Lung ADC, EGFR ex19, 72 h, mean of several independent experiments", "experimental": "as §1, §2, §3, §4"}, "[16]": {"test_system": "Calu6", "conditions": "Homo sapiens, Calu-6, Lung ADC, KRAS, 72 h, mean of several independent experiments", "experimental": "as §1, §2, §3, §4"}, "[17]": {"test_system": "PC9-GR3", "conditions": "Lung ADC, EGFR ex19, 72 h, mean of several independent experiments", "experimental": "as §1, §2, §3, §4"}, "[18]": {"test_system": "SK-MES-1", "conditions": "Homo sapiens, SCC Lung, DDR2 wt, 72 h, mean of several independent experiments", "experimental": "as §1, §2, §3, §4"}, "[19]": {"test_system": "PC9", "conditions": "Homo sapiens, PC-9, Lung ADC, EGFR ex19, 72 h, mean of several independent experiments", "experimental": "as §1, §2, §3, §4"}, "[20]": {"test_system": "PC9-GR5", "conditions": "Lung ADC, EGFR ex19, 72 h, mean of several independent experiments", "experimental": "as §1, §2, §3, §4"}, "[21]": {"test_system": "L239R", "conditions": "SCC Lung, DDR2 mutated, 72 h, mean of several independent experiments", "experimental": "as §1, §2, §3, §4"}, "[22]": {"test_system": "H11-18", "conditions": "Lung ADC, EGFR ex21, 72 h, mean of several independent experiments", "experimental": "as §1, §2, §3, §4"}, "[23]": {"test_system": "H2228", "conditions": "Homo sapiens, NCI-H2228, Lung ADC, ALK-EML4 (v3), 72 h, mean of several independent experiments", "experimental": "as §1, §2, §3, §4"}, "[24]": {"test_system": "FaDu", "conditions": "Homo sapiens, SCC Head&Neck, DDR2 wt, 72 h, mean of several independent experiments", "experimental": "as §1, §2, §3, §4"}, "[25]": {"test_system": "H1568", "conditions": "NCI-H1568, Lung ADC, CD74-NRG1, 72 h, mean of several independent experiments", "experimental": "as §1, §2, §3, §4"}}, "data": [{"compound": "Cn1c(=O)c(-c2c(Cl)cccc2Cl)cc2c(N)nc(Nc3ccccc3)nc21", "note": "[Compound (1), 4-amino-6-(2,6-dichlorophenyl)-8-methyl-2-(phenylamino)-pyrido[2,3-d]pyrimidin-7(8H)-one]", "values": [{"measurement": "IC50", "setting": "[1]", "result": 5.1, "unit": "µM"}, {"measurement": "IC50", "setting": "[2]", "result": 0.35, "unit": "µM"}, {"measurement": "IC50", "setting": "[3]", "result": 1.57, "unit": "µM"}, {"measurement": "IC50", "setting": "[4]", "result": 1.8, "unit": "µM"}, {"measurement": "IC50", "setting": "[5]", "result": 2.6, "unit": "µM"}, {"measurement": "IC50", "setting": "[6]", "result": 1, "unit": "µM"}, {"measurement": "IC50", "setting": "[7]", "result": 1.9, "unit": "µM"}, {"measurement": "IC50", "setting": "[8]", "result": 2.16, "unit": "µM"}, {"measurement": "IC50", "setting": "[9]", "result": 0.92, "unit": "µM"}, {"measurement": "IC50", "setting": "[10]", "result": 1.35, "unit": "µM"}, {"measurement": "IC50", "setting": "[11]", "result": 0.49, "unit": "µM"}, {"measurement": "IC50", "setting": "[12]", "result": 4.35, "unit": "µM"}, {"measurement": "IC50", "setting": "[13]", "result": 1, "unit": "µM"}, {"measurement": "IC50", "setting": "[14]", "result": 0.05, "unit": "µM"}, {"measurement": "IC50", "setting": "[15]", "result": 2.68, "unit": "µM"}, {"measurement": "IC50", "setting": "[16]", "result": 0.72, "unit": "µM"}, {"measurement": "IC50", "setting": "[17]", "result": 0.88, "unit": "µM"}, {"measurement": "IC50", "setting": "[18]", "result": 0.57, "unit": "µM"}, {"measurement": "IC50", "setting": "[19]", "result": 2.85, "unit": "µM"}, {"measurement": "IC50", "setting": "[20]", "result": 1.61, "unit": "µM"}, {"measurement": "IC50", "setting": "[21]", "result": 0.75, "unit": "µM"}, {"measurement": "IC50", "setting": "[22]", "result": 4.9, "unit": "µM"}, {"measurement": "IC50", "setting": "[23]", "result": 1.36, "unit": "µM"}, {"measurement": "IC50", "setting": "[24]", "result": 4.85, "unit": "µM"}, {"measurement": "IC50", "setting": "[25]", "result": 2.43, "unit": "µM"}]}]}
